Like-named read-outs stand apart in the source and are kept apart here.
Key:
NF-κB = NF-κB inhibitor screen: basal NF-κB-dependent luciferase expression in HEK/NF-κB cell line; format: cell-based; conditions: for NFkB inhibition @ 1 uM / inhibition at 1 µM: determined as described in Example 398; for inhibition at 1 µM: read-out: NFkB inhibition @ 1 uM
Description: Development of NF-κB and AP-1 Screens: Two HEK293 cell lines were purchased from Panomics. One cell line was stably transfected with a plasmid in which luciferase expression is regulated by six copies of the NF-κB transcriptional element (5′-[…]-3′); and the other cell line was stably transfected with a plasmid in which luciferase expression is regulated by three copies of the AP-1 transcriptional element (TGACTAA). To test the biological activity of the promoters, the HEK/NF-κB cell line was stimulated with TNF-α (20 ng/ml) for 24 hours, and the HEK/AP-1 cell line was stimulated with PMA (10 ng/ml) for 24 hours. […] In addition, a pyrimidine carboxyimide that had previously been shown (ref. 58) to be an inhibitor of transcription mediated by NF-κB and AP-1 reduced luciferase activity by approximately 40% in each of the NF-κB and AP-1 cell lines.
The above two assays analyzed the effects of the compounds on post-transcriptional gene regulation, which is known to play a key role in cancer and inflammation. By contrast, the NF-κB assay and the following assay (AP-1) test whether the compounds act at the transcriptional level. Thirty-nine representative compounds were screened in an HEK/NF-κB cell line. HEK cells were stably transfected with a plasmid expressing luciferase under the control of the NF-κB promoter. These transfected cells were plated on a 96-well plate. As above, initial screening was carried out at 1.0 μM by adding compound in DMSO (0.3%) twenty-four hours after plating. Each compound was added to each of triplicate wells. DMSO (0.3%) was added to one set of wells as a control. Luciferase activity was determined using Promega's Brite-Glo kit, and the mean for each sample was normalized to that for DMSO.
The fourteen representative compounds identified in the eIF4E screen as interesting (Numbered 2, 3, 4, 6, 8, 11, 15, 20, 21, 24, 25, 32, 33, and 35) were then tested for luciferase activity in a six-point dose response (10 nM, 33 nM, 100 nM, 330 nM, 1000 nM, and 3300 nM). Screening was carried out as described above by monitoring the effects of the compounds on basal NF-κB-dependent luciferase expression. Each dose was used out in triplicate, and repeated between two and four times. Results were normalized by the average expression level at the lowest concentration level, as described above.

carageenan-induced edema = assay: Carrageenan-induced rat paw edema test (anti-inflammatory activity); format: in vivo, Sprague-Dawley rats; set-up: % Protection: concentration or dose not given beside the values; conditions: carrageenan-induced rat paw edema, defined in Example 397; for inhibition in vivo at 50 mg/kg: po, 3 h, read-out: % Protection
Summary of the method: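 Edema was raised by sub-plantar injection of 1% carrageenan into the right hind paw, 1 h after dosing 18 h-fasted male/female Sprague-Dawley rats (150-250 g) with 50 mg/kg p.o. in 0.1% CMC. Swelling was measured by displacement 3 h later and expressed as % protection against saline control.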

AP-1 = AP-1 inhibitor screen: basal AP-1-dependent luciferase expression in HEK/AP-1 cell line; format: cell-based; conditions: for AP-1 inhibition @ 1 uM / inhibition at 1 µM: determined as described in Example 398; for inhibition at 1 µM: AP1
Description: Development of NF-κB and AP-1 Screens: Two HEK293 cell lines were purchased from Panomics. One cell line was stably transfected with a plasmid in which luciferase expression is regulated by six copies of the NF-κB transcriptional element (5′-[…]-3′); and the other cell line was stably transfected with a plasmid in which luciferase expression is regulated by three copies of the AP-1 transcriptional element (TGACTAA). To test the biological activity of the promoters, the HEK/NF-κB cell line was stimulated with TNF-α (20 ng/ml) for 24 hours, and the HEK/AP-1 cell line was stimulated with PMA (10 ng/ml) for 24 hours.
HEK cells were stably transfected with a plasmid expressing luciferase under the control of the AP-1 promoter. The transfected cells were plated on a 96-well plate for 24 hr. Then 1.0 μM of each compound in DMSO (0.3%) was added to triplicate wells and incubated for 48 hr. DMSO (0.3%) was added to one set of triplicate wells as a control. Luciferase activity was determined using Promega's Brite-Glo kit, and the mean for each sample was normalized to that for DMSO.
Screening was carried out as described above, monitoring the compounds' effects on basal AP-1-dependent luciferase expression. Each dose-response experiment was carried out in triplicate and repeated between two and four times.

Row | Compound | inhibition at 1 µM (NF-κB) [%] | inhibition in vivo at 50 mg/kg (carageenan-induced edema; Rattus norvegicus) [%] | inhibition at 1 µM (AP-1) [%] | other results
1 | CNc1nc(C)c(-c2nc3ccccc3c(=O)n2-c2ccccc2C)s1 [Example 168] | – | – | – | NFkB inhibition @ 1 uM (NF-κB): 16; % Protection (carageenan-induced edema): 35%; AP-1 inhibition @ 1 uM (AP-1): 67
2 | Cc1ccc(-n2c(-c3sc(Nc4ccc(Cl)cc4)nc3-c3ccccc3)nc3ccccc3c2=O)cc1 [Example 200, 2-[2-(4-Chloro-phenylamino)-4-phenyl-thiazol-5-yl]-3-p-tolyl-3H-quinazolin-4-one] | -16 | 56 | 2 | –
3 | COC(=O)Nc1nc(-c2ccccc2)c(-c2nc3ccccc3c(=O)n2-c2ccc(Cl)cc2)s1 [Example 250, [5-(4-Oxo-3-(4-Chloro-phenyl)-3,4-dihydro-quinazolin-2-yl)-4-phenyl-thiazol-2-yl]-carbamic acid methyl ester] | 17 | 83 | 5 | –
4 | Cc1ccc(-n2c(-c3sc(Nc4ccc(Cl)cc4)nc3C)nc3ccccc3c2=O)cc1 [Example 192, 2-[2-(4-Chlorophenylamino)-4-methyl-thiazol-5-yl]-3-p-tolyl-3H-quinazolin-4-one] | 12 | 37 | 2 | –
5 | O=c1c2ccccc2nc(-c2sc(Nc3ccc(Cl)cc3)nc2-c2ccccc2)n1-c1ccccc1 [Example 165, 2-[2-(4-Chloro-phenylamino)-4-phenyl-thiazol-5-yl]-3-phenyl-3H-quinazolin-4-one] | -47 | 87 | 27 | basal AP-1-dependent luciferase, six-point dose response (AP-1; 10 nM-3300 nM (FIG. 14)): substantial activity at submicromolar concentrations
6 | O=c1c2ccccc2nc(-c2sc(Nc3ccc(Cl)cc3)nc2-c2ccccc2)n1-c1ccc(Cl)cc1 [Example 256, 2-[2-(4-Chloro-phenylamino)-4-phenyl-thiazol-5-yl]-3-(4-Chloro-phenyl)-3H-quinazolin-4-one] | 99 | 84 | 61 | –
7 | Cc1nc(Nc2ccc(Cl)cc2)sc1-c1nc2ccccc2c(=O)n1-c1ccccc1 [Example 158, 2-[2-(4-Chlorophenylamino)-4-methyl-thiazol-5-yl]-3-phenyl-3H-quinazolin-4-one] | -9 | 4 | -20 | –
8 | 2-[2-(1-Furan-2-yl-vinylamino)-4-phenyl-thiazol-5-yl]-3-(4-methoxyphenyl)-3H-quinazolin-4-one [Example 224] | – | – | – | NFkB inhibition @ 1 uM (NF-κB): −24; % Protection (carageenan-induced edema): 79%; AP-1 inhibition @ 1 uM (AP-1): 2
9 | O=C(Nc1nc(-c2ccccc2)c(-c2nc3ccccc3c(=O)n2-c2ccc(Cl)cc2)s1)c1ccccc1 [Example 253, N-[5-(4-Oxo-3-(4-Chloro-phenyl)-3,4-dihydro-quinazolin-2-yl)-4-phenyl-thiazole-2-yl]benzamide] | 87 | 83 | 28 | –
10 | 2-[2-(1-Furan-2-yl-vinylamino)-4-phenyl-thiazol-5-yl]-3-phenyl-3H-quinazolin-4-one [Example 164] | – | – | – | NFkB inhibition @ 1 uM (NF-κB): 2; % Protection (carageenan-induced edema): 66%; AP-1 inhibition @ 1 uM (AP-1): 53
11 | COc1ccc(-n2c(-c3sc(NC(=O)c4ccccc4)nc3-c3ccccc3)nc3ccccc3c2=O)cc1 [Example 222, N-[5-(4-Oxo-3-(4-methoxyphenyl)-3,4-dihydro-quinazolin-2-yl)-4-phenyl-thiazole-2-yl]benzamide] | 15 | 24 | 0 | –
12 | 2-[2-(1-Furan-2-yl-vinylamino)-4-phenyl-thiazol-5-yl]-3-(4-acetyl-phenyl)-3H-quinazolin-4-one [Example 270] | – | – | – | NFkB inhibition @ 1 uM (NF-κB): 11; % Protection (carageenan-induced edema): 20%; AP-1 inhibition @ 1 uM (AP-1): 18
13 | COc1ccc(-n2c(-c3sc(Nc4ccccc4)nc3-c3ccccc3)nc3ccccc3c2=O)cc1 [Example 221, 3-(4-Methoxyphenyl)-2-(4-phenyl-2-phenylamino-thiazol-5-yl)-3H-quinazolin-4-one] | 79 | 85 | 18 | –
14 | COc1cccc(-n2c(-c3sc(Nc4ccccc4)nc3-c3ccccc3)nc3ccccc3c2=O)c1 [Example 213, 3-(3-methoxyphenyl)-2-(4-phenyl-2-phenylamino-thiazol-5-yl)-3H-quinazolin-4-one] | 35 | 38 | 33 | –
15 | CCOC(=O)Nc1nc(C)c(-c2nc3ccccc3c(=O)n2-c2ccc(Cl)cc2)s1 [Example 242, (4-Methyl-5-(4-oxo-3-(4-chloro-phenyl)-3,4-dihydro-quinazolin-2-yl)-thiazol-2-yl)-carbamic acid ethyl ester] | 53 | 65 | 12 | inhibition of basal NF-κB-dependent luciferase expression (NF-κB; 3.3 μM (FIG. 12)): about 50%
16 | CCOC(=O)Nc1nc(C)c(-c2nc3ccccc3c(=O)n2-c2ccccc2)s1 [Example 154, (4-Methyl-5-(4-oxo-3-phenyl-3,4-dihydro-quinazolin-2-yl)-thiazol-2-yl)-carbamic acid ethyl ester] | 19 | 12 | -13 | –
17 | Cc1nc(Nc2ccc(Cl)cc2)sc1-c1nc2ccccc2c(=O)n1-c1ccccc1Cl [Example 230, 2-[2-(4-Chlorophenylamino)-4-methyl-thiazol-5-yl]-3-(2-chloro-phenyl)-3H-quinazolin-4-one] | 60 | 58 | 21 | –
18 | CNc1nc(C)c(-c2nc3ccccc3c(=O)n2-c2ccc(C(C)=O)cc2)s1 [Example 261, 2-(4-Methyl-2-methylamino-thiazol-5-yl)-3-(4-acetyl-phenyl)-3H-quinazolin-4-one] | 71 | 42 | -33 | –
19 | O=C(Nc1nc(-c2ccccc2)c(-c2nc3ccccc3c(=O)n2-c2ccccc2)s1)c1ccccc1 [Example 162] | – | – | – | NFkB inhibition @ 1 uM (NF-κB): 58; % Protection (carageenan-induced edema): 87%; AP-1 inhibition @ 1 uM (AP-1): 17
20 | CCOC(=O)Nc1nc(-c2ccccc2)c(-c2nc3ccccc3c(=O)n2-c2ccc(C(C)=O)cc2)s1 [Example 264, [5-(4-Oxo-3-(4-acetyl-phenyl)-3,4-dihydro-quinazolin-2-yl)-4-phenyl-thiazol-2-yl]-carbamic acid ethyl ester] | 25 | 40 | 25 | –
21 | CNc1nc(-c2ccccc2)c(-c2nc3ccccc3c(=O)n2-c2ccc(Cl)cc2)s1 [Example 251, 2-(2-Methylamino-4-phenyl-thiazol-5-yl)-3-(4-Chloro-phenyl)-3H-quinazolin-4-one] | 85 | – | 69 | inhibition in vivo at 50 mg/kg (carageenan-induced edema): 92%
22 | CC(=O)c1ccc(-n2c(-c3sc(Nc4ccc(Cl)cc4)nc3C)nc3ccccc3c2=O)cc1 [Example 263, 2-[2-(4-Chlorophenylamino)-4-methyl-thiazol-5-yl]-3-(4-acetyl-phenyl)-3H-quinazolin-4-one] | 0 | 13 | 2 | –

— patent US8829014B2, “Thiazole and thiophene analogues, and their use in treating autoimmune diseases and cancers” (Board of Supervisors of Louisiana State University and …, priority 2006, dated 2014)
